Earlier results on one compound are cited in patent publication EP3263095A1, “A PHARMACEUTICAL FORMULATION OF OLAPARIB” (Zentiva K.S., priority 2016, dated 2018).

For the data set the following is noted: EMA/CHMP/789139/2014.

`O=C(c1cc(Cc2n[nH]c(=O)c3ccccc23)ccc1F)N1CCN(C(=O)C2CC2)CC1` [olaparib, 4-[(3-[(4-cyclopropylcarbonyl)piperazin-4-yl]carbonyl)-4-fluorophenyl]methyl(2H)-phtalazin-1-one]: the “Group of the Biopharmaceutical Classification System (low solubility and bioavailability)” value is “Group 4”.
